The IC50 is the concentration at which inhibition is half-maximal.

The values below come from US20250197375A1, “PYRIMIDINES AND METHODS OF THEIR USE” (Kineta, Inc., priority 2021, published 2025).

The subject of one assay is FAB1 TDP-43 yeast strain. Description: Propidium iodide viability assay in FAB1 TDP-43 control yeast strain. Format: cell-based. The settings on record: for FAB1 TDP-43 (active/inactive): FAB1 TDP-43 yeast model. Here is the method:
Viability Assay. A control yeast strain with the wild-type yeast FAB1 gene and TDP-43 (“FAB1 TDP-43”, carries empty pAG416 plasmid), and the “PIKFYVE TDP-43” yeast strain, were assessed for toxicity using a propidium iodide viability assay. Both yeast strains were transferred from solid CSM-ura/2% glucose agar plates into 3 mL of liquid CSM-ura/2% glucose media for 6-8 hours at 30° C. with aeration. Yeast cultures were then diluted to an optical density at 600 nm wavelength (OD600) of 0.005 in 3 mL of CSM-ura/2% raffinose and grown overnight at 30° C. with aeration to an OD600 of 0.3-0.8. Log-phase overnight cultures were diluted to OD600 of 0.005 in CSM-ura containing either 2% raffinose or galactose and 150 µL dispensed into each well of a flat bottom 96-well plates. Compounds formulated in 100% dimethyl sulfoxide (DMSO) were serially diluted in DMSO and 1.5 µL diluted compound transferred to the 96-well plates using a multichannel pipet. Wells containing DMSO alone were also evaluated as controls for compound effects. Tested concentrations ranged from 15 µM to 0.11 µM. Cultures were immediately mixed to ensure compound distribution and covered plates incubated at 30° C. for 24 hours in a stationary, humified incubator.
(§1) Upon the completion of incubation, cultures were assayed for viability using propidium iodide (PI) to stain for dead/dying cells. A working solution of PI was made where, for each plate, 1 µL of 10 mM PI was added to 10 mL of CSM-ura (raffinose or galactose). The final PI solution (50 µL/well) was dispensed into each well of a new round bottom 96-well plate. The overnight 96-well assay plate was then mixed with a multichannel pipet and 50 µL transferred to the PI-containing plate. This plate was then incubated for 30 minutes at 30° C. in the dark. A benchtop flow cytometer (Miltenyi MACSquant) was then used to assess red fluorescence (B2 channel), forward scatter, and side scatter (with following settings: gentle mix, high flow rate, fast measurement, 10,000 events). Intensity histograms were then gated for “P-positive” or “PI-negative” using the raffinose and galactose cultures treated with DMSO as controls. The DMSO controls for raffinose or galactose-containing cultures were used to determine the window of increased cell death and this difference set to 100. All compounds were similarity gated and then compared to this maximal window to establish the percent reduction in PI-positive cells.

Assay [1] deals with PIKFYVE TDP-43 yeast strain. The assay can be described thus: Propidium iodide viability assay in PIKFYVE TDP-43 yeast strain. The format is cell-based. Particulars: for PIKfyve TDP-43 (active/inactive): PIKFYVE TDP-43 yeast model; for IC50: Saccharomyces cerevisiae, PIKFYVE TDP-43 yeast strain, reduction in PI-positive cells, 15 to 0.11 μM, 24 hours.
Source text: Generation of TDP-43 yeast model expressing human PIKfyve. Human PIKFYVE (“entry clone”) was cloned into pAG416GPDccdB (“destination vector”) according to standard Gateway cloning protocols (Invitrogen, Life Technologies). […] Lithium acetate/polyethylene glycol-based transformation was used to introduce the above PIKFYVE plasmid into a BY4741 yeast strain auxotrophic for the ura3 gene and deleted for two transcription factors that regulate the xenobiotic efflux pumps, a major efflux pump, and FAB1, the yeast ortholog of PIKFYVE (MATa, snq2::KILeu2; pdr3::Klura3; pdr1::NATMX; fab1::G418^R, his3; leu2; ura3; met15; LYS2+) (FIG. 2). Transformed yeast were plated on solid agar plates with complete synthetic media lacking uracil (CSM-ura) and containing 2% glucose. Individual colonies harboring the control or PIKFYVE TDP-43 plasmids were recovered. A plasmid containing wild-type TDP-43 under the transcriptional control of the GAL1 promoter and containing the hygromycin-resistance gene as a selectable marker was transformed into the fab1::G418^R pAG416GPD-PIKFYVE yeast strain (FIG. 1). Transformed yeast were plated on CSM-ura containing 2% glucose and 200 µg/mL G418 after overnight recovery in media lacking antibiotic. Multiple independent isolates were further evaluated for cytotoxicity and TDP-43 expression levels.
Viability Assay. A control yeast strain with the wild-type yeast FAB1 gene and TDP-43 (“FAB1 TDP-43”, carries empty pAG416 plasmid), and the “PIKFYVE TDP-43” yeast strain, were assessed for toxicity using a propidium iodide viability assay. Both yeast strains were transferred from solid CSM-ura/2% glucose agar plates into 3 mL of liquid CSM-ura/2% glucose media for 6-8 hours at 30° C. with aeration. […] Log-phase overnight cultures were diluted to OD600 of 0.005 in CSM-ura containing either 2% raffinose or galactose and 150 µL dispensed into each well of a flat bottom 96-well plates. […] Wells containing DMSO alone were also evaluated as controls for compound effects. […] Cultures were immediately mixed to ensure compound distribution and covered plates incubated at 30° C. for 24 hours in a stationary, humified incubator.
as §1

The target in assay [2] is full-length human PIKFYVE (Homo sapiens (Human), UniProt Q9Y2I7, L932S/Q1183K/Q995L/S1033A/S696N/T998S). Description: PIKfyve Biochemical Assay (ADP-Glo Kinase assay, GST-PIKFYVE). The settings on record: ADP-Glo, 1 hour at room temperature, 10 μM to 3 nM in duplicate; read-out: PIKfyve Biochemistry IC50 (μM)*. How it is done: PIKfyve Biochemical Assay. The biochemical PIKFyve inhibition assays were run by Cama Biosciences according to proprietary methodology based on the Promega ADP-Glo™ Kinase assay. […] GST-PIKFYVE was purified by using glutathione sepharose chromatography and used in an ADP-Glo™ Kinase assay (Promega). Reactions were set up by adding the test compound solution, substrate solution, ATP solution and kinase solution, each at 4× final concentrations. Reactions were prepared with assay buffer (50 mM MOPS, 1 mM DTT, pH7.2), mixed, and incubated in black 384 well polystyrene plates for 1 hour at room temperature. ADP-Glo™ reagent was then added for 40 minutes, followed by kinase detection reagent for an additional 40 minutes. The kinase activity was evaluated by detecting relative light units on a luminescence plate reader. Samples were run in duplicate from 10 μM to 3 nM. […] IC50 values were calculated from concentration versus percent inhibition curves by fitting to a four-parameter logistic curve.
The biochemical PIKFyve inhibition assays were run by Cama Biosciences according to proprietary methodology based on the Promega ADP-Glo™ Kinase assay. […] GST-PIKFYVE was purified by using glutathione sepharose chromatography and used in an ADP-Glo™ Kinase assay (Promega).
Reactions were set up by adding the test compound solution, substrate solution, ATP solution and kinase solution, each at 4× final concentrations. Reactions were prepared with assay buffer (50 mM MOPS, 1 mM DTT, pH7.2), mixed, and incubated in black 384 well polystyrene plates for 1 hour at room temperature. ADP-Glo™ reagent was then added for 40 minutes, followed by kinase detection reagent for an additional 40 minutes. The kinase activity was evaluated by detecting relative light units on a luminescence plate reader. Samples were run in duplicate from 10 uM to 3 nM. […] IC50 values were calculated from concentration vs % inhibition curves by fitting to a four-parameter logistic curve.
On the technique in general: ADP-Glo turns the ADP formed in a reaction into a luminescent signal.

For the next assay, the target named is PIKfyve (Homo sapiens (Human), UniProt Q9Y2I7). Description: PIKfyve EEA1 Assay (endosomal vesicle enlargement, high content imaging in U2OS cells). The format is cell-based. The settings on record: 3 hours of treatment, activity relative to maximal APY0201 activity. How it is done: PIKfyve EEA1 Assay. Genetic or pharmacological disruption of PIKfyve activity results in enlargement of endosomal vesicles. This enlargement was utilized as a surrogate readout of PIKFyve inhibition for routine triage of PIKfyve inhibitors. U2OS cells grown in 96-well assay plates were treated with compound diluted in DMEM media containing 10% fetal bovine serum. After 3 hours of treatment, cells were fixed with paraformaldehyde, permeabilized with 0.2% Triton-X in phosphate buffered saline and stained against EEA1. During the secondary antibody staining, cells were also stained with CellMask™ Deep Red and Hoechst to detect cytoplasms and nuclei respectively. Endosomal structures were visualized using a high content imager at 40× magnification. Images were analyzed using a linear classifier algorithm integrating EEA1 spot size, intensity and texture trained on images of cells treated with the potent reference compound APY0201. Compound activity was calculated by subtracting the DMSO signal and calculating percentage activity relative to maximal APY0201 activity. IC50 values were then calculated from concentration versus percent inhibition data by logistic regression.

The structures appear in SMILES notation. Where only a bound is given, the exact number is not on record here.

full-length human PIKFYVE, sequence (Q9Y2I7 whole entry S696N/L932S/Q995L/T998S/S1033A/Q1183K): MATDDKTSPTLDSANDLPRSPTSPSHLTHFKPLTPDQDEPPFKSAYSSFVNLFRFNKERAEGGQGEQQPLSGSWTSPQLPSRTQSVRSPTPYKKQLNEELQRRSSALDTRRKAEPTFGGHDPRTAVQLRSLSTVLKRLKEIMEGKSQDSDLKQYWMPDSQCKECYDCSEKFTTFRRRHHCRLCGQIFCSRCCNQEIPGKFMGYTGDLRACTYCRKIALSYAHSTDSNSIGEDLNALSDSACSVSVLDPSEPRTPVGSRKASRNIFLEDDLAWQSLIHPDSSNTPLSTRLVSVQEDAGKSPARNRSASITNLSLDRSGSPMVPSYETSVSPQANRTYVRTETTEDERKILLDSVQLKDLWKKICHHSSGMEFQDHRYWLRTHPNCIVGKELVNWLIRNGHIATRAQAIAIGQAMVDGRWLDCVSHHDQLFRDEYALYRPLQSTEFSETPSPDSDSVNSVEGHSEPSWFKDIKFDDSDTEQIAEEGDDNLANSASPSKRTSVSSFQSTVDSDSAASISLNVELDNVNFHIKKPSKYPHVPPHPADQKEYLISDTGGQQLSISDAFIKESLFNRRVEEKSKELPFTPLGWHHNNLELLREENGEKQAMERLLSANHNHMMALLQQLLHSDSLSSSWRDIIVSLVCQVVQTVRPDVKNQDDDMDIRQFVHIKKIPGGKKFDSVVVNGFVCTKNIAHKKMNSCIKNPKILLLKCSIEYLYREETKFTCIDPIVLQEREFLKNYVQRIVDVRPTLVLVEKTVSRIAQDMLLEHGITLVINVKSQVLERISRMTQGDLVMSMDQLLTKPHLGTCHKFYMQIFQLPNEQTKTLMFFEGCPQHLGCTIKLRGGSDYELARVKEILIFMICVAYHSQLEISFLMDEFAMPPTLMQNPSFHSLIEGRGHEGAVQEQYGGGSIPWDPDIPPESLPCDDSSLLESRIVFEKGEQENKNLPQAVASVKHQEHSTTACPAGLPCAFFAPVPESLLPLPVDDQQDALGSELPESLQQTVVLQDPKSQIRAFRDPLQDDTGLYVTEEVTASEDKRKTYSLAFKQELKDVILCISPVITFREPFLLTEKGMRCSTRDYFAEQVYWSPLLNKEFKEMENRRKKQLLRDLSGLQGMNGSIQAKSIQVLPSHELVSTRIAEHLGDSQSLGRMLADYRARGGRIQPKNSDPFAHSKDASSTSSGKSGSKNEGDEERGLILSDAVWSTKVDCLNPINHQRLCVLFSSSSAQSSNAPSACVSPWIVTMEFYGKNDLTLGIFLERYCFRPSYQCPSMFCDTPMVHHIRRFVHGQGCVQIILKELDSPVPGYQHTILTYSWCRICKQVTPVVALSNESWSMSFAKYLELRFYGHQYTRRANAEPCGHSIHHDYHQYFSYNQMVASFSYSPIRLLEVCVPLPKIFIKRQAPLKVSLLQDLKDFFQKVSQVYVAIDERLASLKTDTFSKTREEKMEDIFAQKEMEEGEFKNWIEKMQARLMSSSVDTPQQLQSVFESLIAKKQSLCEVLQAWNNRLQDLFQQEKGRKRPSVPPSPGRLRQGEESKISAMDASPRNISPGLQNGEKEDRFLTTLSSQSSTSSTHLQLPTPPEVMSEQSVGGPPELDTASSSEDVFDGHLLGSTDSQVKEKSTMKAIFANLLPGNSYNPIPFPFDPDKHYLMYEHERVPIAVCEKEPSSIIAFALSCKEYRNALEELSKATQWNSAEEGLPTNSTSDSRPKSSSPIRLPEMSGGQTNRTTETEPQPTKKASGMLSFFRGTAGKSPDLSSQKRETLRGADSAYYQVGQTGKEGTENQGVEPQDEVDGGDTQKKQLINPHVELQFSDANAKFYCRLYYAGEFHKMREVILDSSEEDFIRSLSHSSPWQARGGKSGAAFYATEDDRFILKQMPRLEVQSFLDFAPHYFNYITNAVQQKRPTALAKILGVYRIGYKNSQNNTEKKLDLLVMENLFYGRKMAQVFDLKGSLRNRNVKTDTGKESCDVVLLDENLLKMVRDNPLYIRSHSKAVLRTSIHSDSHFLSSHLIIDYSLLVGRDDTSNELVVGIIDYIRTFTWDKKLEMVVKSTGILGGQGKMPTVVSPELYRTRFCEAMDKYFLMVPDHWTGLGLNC
PIKfyve, sequence (Q9Y2I7 whole entry): as the sequence (Q9Y2I7 whole entry S696N/L932S/Q995L/T998S/S1033A/Q1183K) above, with N696S, S932L, L995Q, S998T, A1033S, K1183Q counted along it

Regarding `Cn1c(-c2ccncc2)nc2c(N3CCOCC3)ncnc21`, in the assay on FAB1 TDP-43 yeast strain, the “FAB1 TDP-43 (active/inactive)” value is “Inactive”. Also, the “PIKfyve TDP-43 (active/inactive)” value in assay [1] is “Inactive”.

Turning to `CN(C)c1cc(N2CCOCC2)n2nc(-c3ccncc3)cc2n1`, the “FAB1 TDP-43 (active/inactive)” value with FAB1 TDP-43 yeast strain is on record as “Inactive”. The “PIKfyve TDP-43 (active/inactive)” value in assay [1] is “Inactive”. As to `Cc1cccc(/C=N/Nc2nc(N3CCOCC3)c3nc(-c4ccncc4)n(C)c3n2)c1` [drawing 192], the “FAB1 TDP-43 (active/inactive)” value in the assay on FAB1 TDP-43 yeast strain was “Inactive”. Further, the “PIKfyve TDP-43 (active/inactive)” value in assay [1] is “Active”. In assay [1], `Oc1cc(C2CCOCC2)nn1-c1cc(N2CCOCC2)n2nc(-c3ccncc3)cc2n1` showed a half-inhibitory concentration (IC50) of 9100 nM.

Consider `Cc1cccc(/C=N/Nc2cc(N3CCOCC3)n3nc(-c4ccncc4)cc3n2)c1` [drawing 190], for which the “FAB1 TDP-43 (active/inactive)” value with FAB1 TDP-43 yeast strain is given as “Inactive”. In assay [1], the “PIKfyve TDP-43 (active/inactive)” value is given as “Active”. The corresponding values for `Cc1cccc(/C=N/Nc2cc(N3CC4CC3CO4)n3nc(-c4ccncc4)cc3n2)c1` (stereo not drawn) are “Inactive” and “Active”. With `c1ccc(-c2ccnc(-c3cc(N4CCOCC4)nc(OCc4ccncc4)n3)n2)cc1`, in assay [1], the midpoint of inhibition, the IC50, lay at 1450 nM. Take `Cc1cccc(/C=N/Nc2cc(N3CCOCC3)n3nc(-c4ccncc4)cc3n2)c1` [APY0201]: the “viable cells (propidium iodide-negative population)” value in the assay with FAB1 TDP-43 yeast strain (FAB1 TDP-43, across a range of compound concentrations (only 0.23 μM is shown), FIG. 5) is recorded as “no increase in viable cells”. The “population of propidium iodide-positive dead cells” value in assay [1] (PIKFYVE TDP-43 model, 0.23 μM, FIG. 6) was “reduced the population of propidium iodide-positive dead cells”. In addition, the viability entry in assay [1] (PIKFYVE TDP-43 model, concentrations ranging from 0.5 mM to less than 100 nM) is “increased viability”.

In turn, `Fc1cccc(-c2ccnn2-c2nc(N3CCOCC3)c3ncccc3n2)c1` showed an IC50 in assay [1] of 5750 nM. For `Cc1cccc(/C=N/Nc2nc(N3CCOCC3)c3ncccc3n2)c1`, the IC50 in assay [1] was found to be 8210 nM. In the case of `c1ccc(-c2cccc(-c3cc(N4CCOCC4)n4nc(-c5ccncc5)cc4n3)n2)cc1`, 230 nM corresponded to half-maximal inhibition in assay [1] (IC50). On the same count and under the same terms, the value for `c1ccc(N2CCc3c(OCc4cccnc4)nc(N4CCOCC4)nc32)cc1` was 2680 nM. Regarding `COc1cc(-c2nc(N3CCOCC3)nc(Nc3ccncc3)c2OC)cnc1OC` [Compound 12, 6-(5,6-dimethoxypyridin-3-yl)-5-methoxy-2-morpholino-N-(pyridin-4-yl)pyrimidin-4-amine], the IC50 in assay [2] was < 0.01 µM; against PIKfyve it was 0.1 to 1 µM.

For the compound `COc1cn(C)nc1-c1cccc(-c2nc(N3CCOCC3)nc(Nc3ccncc3)c2OC)c1` [Compound 47, 5-methoxy-6-(3-(4-methoxy-1-methyl-1H-pyrazol-3-yl)phenyl)-2-morpholino-N-(pyridin-4-yl)pyrimidin-4-amine], the IC50 in assay [2] is 0.01 to 0.1 µM; on PIKfyve, 0.1 to 1 µM. The corresponding values for `Cn1ccc(-c2ccc3c(c2)-c2nc(N4CCOCC4)nc(Nc4ccncc4)c2OC3)n1` [Compound 49, 9-(1-methyl-1H-pyrazol-3-yl)-2-morpholino-N-(pyridin-4-yl)-6H-isochromeno[4,3-d]pyrimidin-4-amine] are 0.01 to 0.1 µM and 0.1 to 1 µM. Regarding `Cc1cccc(/C=N/Nc2cc(N3CCOCC3)nc(OCCc3ccc(CN)cc3)n2)c1`, the 50% inhibitory concentration (IC50) in assay [1] worked out at 1120 nM. Turning to `COc1c(Nc2ccc(C)cc2)nc(N2CCOCC2)nc1-c1cc(-c2ccn(C)n2)cnn1` [Compound 17, 5-methoxy-6-(5-(1-methyl-1H-pyrazol-3-yl)pyridazin-3-yl)-2-morpholino-N-(p-tolyl)pyrimidin-4-amine], the IC50 is < 0.01 µM in assay [2] and 0.01 to 0.1 µM against PIKfyve. As to `Cn1ccc(-c2cc3c(cn2)COc2c(Nc4ccncc4)nc(N4CCOCC4)nc2-3)n1` [Compound 38, 9-(1-methyl-1H-pyrazol-3-yl)-2-morpholino-N-(pyridin-4-yl)-6H-pyrido[4′,3′:4,5]pyrano[3,2-d]pyrimidin-4-amine], the IC50 in assay [2] lay in the range of 0.01 to 0.1 µM; at PIKfyve it was 0.1 to 1 µM. In turn, `Cc1cccc(/C=N/Nc2nc(N3CCOCC3)c3nc(-c4ccncc4)n(C)c3n2)c1` [drawing 206] yielded a half-maximal inhibitory concentration (IC50) in assay [1] of 4720 nM.

`Cn1ccc(-c2cnc3c(c2)-c2nc(N4CCOCC4)nc(Nc4ccncc4)c2OC3)n1` [Compound 40, 9-(1-methyl-1H-pyrazol-3-yl)-2-morpholino-N-(pyridin-4-yl)-6H-pyrido[3′,2′:4,5] pyrano[3,2-d]pyrimidin-4-amine]: the IC50 (in assay [2]; at PIKfyve) was 0.01 to 0.1 µM each time. As for `COc1c(Nc2ccncc2)nc(N2CCOCC2)nc1-c1cncc(-c2cccnn2)c1` [Compound 57], the IC50 is < 0.01 µM in assay [2] and 0.1 to 1 µM against PIKfyve. In turn, `Oc1cc(-c2ccccc2)nn1-c1cc(N2CCOCC2)n2nc(-c3ccncc3)nc2n1` yielded an IC50 in assay [1] of 693 nM.
